Data as given in patent publication US4880804A (E. I. Du Pont De Nemours and Company, priority 1988, dated 1989).

How the values were obtained:
[1] = target: AII receptor; assay: Angiotensin II receptor binding, displacement of 3H-AII; conditions: read-out: Angiotensin II Receptor Binding IC50; rat adrenal cortical microsomes, 2 nM 3H-AII, 1 hour, room temperature
Protocol: The reaction mixture contained rat adrenal cortical microsomes (source of AII receptor) in Tris buffer and 2 nM of ^3 H-AII with or without potential AII antagonist. This mixture was incubated for 1 hour at room temperature and the reaction was subsequently terminated by rapid filtration and rinsing through glass microfibre filter. Receptor-bound ^3 H-AII trapped in filter was quantitated by scintillation counting.

[2] = test system: renal hypertensive rats; assay: Antihypertensive effects in renal hypertensive rats; type: in vivo, rat; conditions: class symbol
Protocol: This procedure increases blood pressure by increasing renin production with consequent elevation of AII levels. Compounds are administered orally and/or intravenously via a cannula in the jugular vein. Arterial blood pressure is continuously measured directly through a cartoid artery cannula and recorded using a pressure transducer and a polygraph. Blood pressure levels after treatment are compared to pretreatment levels to determine the antihypertensive effects of the compounds (See Table 4).

[3] = test system: AII; conditions: cited from earlier work
[4] = test system: AII; conditions: cited from earlier work; remark: listed apart in the source

Compound | IC50 [1] | Antihypertensive Effects in Renal Hypertensive Rats, Intravenous Activity [2] | other results
CCOC(=O)C(Cc1nc2ccccc2n1Cc1ccc(NC(=O)c2ccccc2C(=O)O)cc1)C(=O)OCC [Example 1, 3-[1-(4-(2-Carboxybenzamido)benzyl)benzimidazol-2-yl]-2-(carboethoxy)propanoic acid, ethyl ester] | 8.3 µM | – | –
CCOC(=O)C=Cc1nc2ccccc2n1Cc1ccc(NC(=O)c2ccccc2C(=O)O)cc1 [Example 4, 3-[1-(4-(2-Carboxybenzamido)benzyl)benzimidazol-2-yl]propenoic acid, ethyl ester] | 15 µM | – | –
CCOC(=O)C=Cc1nc2ccccc2n1Cc1ccc(NC(=O)c2ccccc2NS(=O)(=O)C(F)(F)F)cc1 [Example 5] | 29 µM | – | –
COCc1nc2ccc(CO)cc2n1Cc1ccc(-c2ccccc2C(=O)O)cc1 [Example 34] | 6.3 µM | + (Significant decrease in blood pressure at 10 mg/kg or less.) | –
COCc1nc2cc(CO)ccc2n1Cc1ccc(-c2ccccc2C(=O)O)cc1 [Example 35] | 21 µM | + (Significant decrease in blood pressure at 10 mg/kg or less.) | –
CCCCc1nc2cc(C(=O)O)ccc2n1Cc1ccc(-c2ccccc2C(=O)O)cc1 [Example 36] | 2.5 µM | + (Significant decrease in blood pressure at 10 mg/kg or less.) | –
CCCCc1nc2cc(Cl)ccc2n1Cc1ccc(-c2ccccc2C(=O)O)cc1 [Example 38] | 11 µM | + (Significant decrease in blood pressure at 10 mg/kg or less.) | –
CNCC(=O)N[C@@H](CCCN=C(N)N)C(=O)N[C@H](C(=O)N[C@@H](Cc1ccc(O)cc1)C(=O)N[C@H](C(=O)N[C@@H](Cc1cnc[nH]1)C(=O)N1CCC[C@H]1C(=O)N[C@@H](C)C(=O)O)C(C)C)C(C)C [Saralasin] | – | – | Antagonism of the actions of AII ([3]; in words): one of the most potent competitive antagonists of the actions of AII; Block of the effects of AII on blood pressure ([3]; pithed rats): blocks the effects of AII on the blood pressure of pithed rats; Lowering of arterial pressure ([4]; elevated pressure dependent on circulating AII): lower arterial pressure in mammals and man when the (elevated) pressure is dependent on circulating AII; Oral effectiveness ([4]; oral): oral doses being ineffective; Duration of pharmacological effects ([4]; parenteral administration): relatively short-lasting; Pressor effects (agonistic character) ([4]; pressure not sustained by AII): generally elicits pressor effects when the pressure is not sustained by AII

Further lines, with some results ahead:

IC50 [1] | Compound | Antihypertensive Effects in Renal Hypertensive Rats, Intravenous Activity [2] | other results
2.1 µM | CCOC(=O)CCc1nc2ccccc2n1Cc1ccc(NC(=O)c2ccccc2C(=O)O)cc1 [Example 2, 3-[1-(4-(2-Carboxybenzamido)benzyl)benzimidazole-2-yl]-2-propanoic acid, ethyl ester] | – | –
4.4 µM | CCCC=Cc1nc2ccccc2n1Cc1ccc(NC(=O)c2ccccc2C(=O)O)cc1 [Example 3, 1-[4-(2-Carboxybenzamido)benzyl]-2-(1-pentenyl)benzimidazole] | – | –
2.8 µM | CCOC(=O)CCc1nc2ccccc2n1Cc1ccc(NC(=O)c2ccccc2NS(=O)(=O)C(F)(F)F)cc1 [Example 6] | – | –
0.22 µM | CCCCc1nc2ccc(CO)cc2n1Cc1ccc(-c2ccccc2C(=O)O)cc1 [Example 27, 2-Butyl-1-[(2'-Carboxybiphenyl-4-yl)methyl]-6-hydroxymethylbenzimidazole] | + (Significant decrease in blood pressure at 10 mg/kg or less.) | Antihypertensive Effects in Renal Hypertensive Rats, Oral Activity [2]: + (Significant decrease in blood pressure at 100 mg/kg or less.)
0.37 µM | CCCCc1nc2cc(CO)ccc2n1Cc1ccc(-c2ccccc2C(=O)O)cc1 [Example 28, 2-Butyl-1-[(2'-carboxybiphenyl-4-yl)methyl]-5-hydroxymethylbenzimidazole] | + (Significant decrease in blood pressure at 10 mg/kg or less.) | –
0.92 µM | CCCCc1nc2ccc(OC)cc2n1Cc1ccc(-c2ccccc2C(=O)O)cc1 [Example 29, 1-[(2'-Carboxybiphenyl-4-yl)methyl]-2-butyl-6-methoxybenzimidazole] | + (Significant decrease in blood pressure at 10 mg/kg or less.) | –
1 µM | CCCCc1nc2cc(OC)ccc2n1Cc1ccc(-c2ccccc2C(=O)O)cc1 [Example 30] | + (Significant decrease in blood pressure at 10 mg/kg or less.) | –
1.4 µM | CCCCc1nc2ccc(C=O)cc2n1Cc1ccc(-c2ccccc2C(=O)O)cc1 [Example 31] | + (Significant decrease in blood pressure at 10 mg/kg or less.) | –
0.5 µM | CCC=Cc1nc2ccc(CO)cc2n1Cc1ccc(-c2ccccc2C(=O)O)cc1 [Example 32, 2-(1-Butenyl)-6-hydroxymethyl-1-[(2'-carboxybiphenyl-4-yl)methyl]benzimidazole] | + (Significant decrease in blood pressure at 10 mg/kg or less.) | Antihypertensive Effects in Renal Hypertensive Rats, Oral Activity [2]: + (Significant decrease in blood pressure at 100 mg/kg or less.)
5 µM | CCCCc1nc2ccc(Cl)cc2n1Cc1ccc(-c2ccccc2C(=O)O)cc1 [Example 33, 2-Butyl-1-[(2'-carboxybiphenyl-4-yl)methyl]-6-chlorobenzimidazole] | + (Significant decrease in blood pressure at 10 mg/kg or less.) | Antihypertensive Effects in Renal Hypertensive Rats, Oral Activity [2]: + (Significant decrease in blood pressure at 100 mg/kg or less.)
5.7 µM | CCCCc1nc2ccc(C(=O)O)cc2n1Cc1ccc(-c2ccccc2C(=O)O)cc1 [Example 37] | + (Significant decrease in blood pressure at 10 mg/kg or less.) | –
